Here are results for 34 compounds from patent US8338565B2, “Macrocyclic compounds for inhibition of tumor necrosis factor alpha” (Ensemble Therapeutics Corporation, priority 2008, dated 2012).

Numbered stars: 1 amine (or outer) side, 2 acyl side, 3 side chain; on linkers, the order of the positions; unused ones are H or OH. Bridge positions count the residues as written; N and C are the ends. Square brackets hold non-standard residues; d marks the D form. Peptide text beside a SMILES is read from it. Tartaroyl(2R,3R-(OAc)2) = CC(=O)O[C@@H](C(=O)[*:1])[C@@H](OC(C)=O)C(=O)[*:2]; Phe(4-CF3) = N[C@@H](Cc1ccc(C(F)(F)F)cc1)C(=O)O; Phe(4-COOH) = N[C@@H](Cc1ccc(C(=O)O)cc1)C(=O)O; Bip = N[C@@H](Cc1ccc(-c2ccccc2)cc1)C(=O)O; dPhe(4-NH2) = Nc1ccc(C[C@@H](N)C(=O)O)cc1; Phe(3-OMe) = COc1cccc(C[C@H](N)C(=O)O)c1; Phe(4-Br) = N[C@@H](Cc1ccc(Br)cc1)C(=O)O; Phe(4-Cl) = N[C@@H](Cc1ccc(Cl)cc1)C(=O)O; Phe(4-NH2) = Nc1ccc(C[C@H](N)C(=O)O)cc1; dAla(2-furyl) = N[C@H](Cc1ccco1)C(=O)O; d2Nal = N[C@H](Cc1ccc2ccccc2c1)C(=O)O; d(hPhe) = N[C@H](CCc1ccccc1)C(=O)O; d2Thi = N[C@H](Cc1cccs1)C(=O)O; Suc = O=C(CCC(=O)[*:2])[*:1]; Inp = O=C(O)C1CCNCC1; GABA = NCCCC(=O)O; βAla = NCCC(=O)O Bounds are passed on as bounds.

The target in the first experiment is T1, TNFα / TNFα receptor (TNFα R1/Fc) (Homo sapiens, UniProt P01375).
T1 construct: purchased R&D Systems
T1 sequence (P01375 77-233 limits assumed, species assumed): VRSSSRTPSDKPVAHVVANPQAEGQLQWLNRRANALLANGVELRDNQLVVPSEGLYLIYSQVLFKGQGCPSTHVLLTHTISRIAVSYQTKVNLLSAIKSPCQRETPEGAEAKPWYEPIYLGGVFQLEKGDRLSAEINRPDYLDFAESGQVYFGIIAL
Nature of the experiment: Inhibition of binding of TNFα to the TNFα receptor (plate ELISA competition). To be noted: Activity (IC50, inhibition of TNFα binding to TNFα R1/Fc), Table 2. The essentials:
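Plates were coated with TNFα at 15 nM. Test compound and 8.33 nM receptor-Fc (PBST, 2% DMSO) were first mixed in solution for 30 min at room temperature, then transferred to the plates for another 30 min. Competition was read by absorbance at 450 nm after HRP anti-human IgG Fc detection with TMB.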
Take `CN(C(=O)[C@@H]1Cc2ccc(cc2)OCC(=O)N[C@@H](Cc2cccs2)C(=O)N[C@H](Cc2ccc(-c3ccccc3)cc2)C(=O)N[C@@H](CCc2ccccc2)C(=O)N1)[C@@H](Cc1ccccc1)C(=O)O` [Compound 621]: the IC50 is less than 10 µM.

Consider `O=C1COc2ccc(cc2)C[C@@H](C(=O)NCS(=O)(=O)O)NC(=O)[C@H](Cc2ccc(O)cc2)NC(=O)[C@@H](Cc2ccc(-c3ccccc3)cc2)NC(=O)[C@H](Cc2cccs2)N1` [Compound 566], for which the IC50 is 10 to 30 µM.

Staying with this experiment, now noted: Table 2; read-out: Activity (IC50, inhibition of TNFα binding to TNFα R1/Fc).
As for `O=C1COc2ccc(cc2)C[C@@H](C(=O)O)NC(=O)[C@@H](CCc2ccccc2)NC(=O)C(c2ccc(Br)cc2)NC(=O)[C@@H](Cc2cccs2)N1` (stereo partly shown) [Compound 525], the IC50 is less than 10 µM. Still for that read-out and setting: to `O=C1CCC(=O)N[C@H](Cc2ccc3ccccc3c2)C(=O)N[C@@H](Cc2ccc(C(F)(F)F)cc2)C(=O)N[C@H](Cc2ccccc2)C(=O)N[C@H](C(=O)O)Cc2ccc(cc2)N1` [Compound 143] ([d2Nal][Phe(4-CF3)][dF][Phe(4-NH2)]-OH; linker N-4 via Suc) belongs greater than 100 µM.

As to `Cc1ccc(C[C@H]2NC(=O)[C@H](O)[C@@H](O)C(=O)Nc3ccc(cc3)C[C@@H](C(=O)O)NC(=O)[C@@H](Cc3ccccc3)NC(=O)[C@H](Cc3ccc(-c4ccccc4)cc3)NC2=O)cc1` [Compound 264], the IC50 was greater than 100 µM. On the same count and under the same terms, to `O=C1COc2ccc(cc2)C[C@@H](C(=O)N[C@H](CCc2ccccc2)C(=O)O)NC(=O)[C@H](CCc2ccccc2)NC(=O)[C@@H](Cc2ccc(-c3ccccc3)cc2)NC(=O)[C@H](Cc2ccc(-c3ccncc3)cc2)N1` [Compound 624] belongs less than 10 µM; to `CC(=O)N[C@H]1CC(=O)Nc2ccc(cc2)C[C@@H](C(=O)O)NC(=O)[C@@H](Cc2ccccc2)NC(=O)[C@H](Cc2ccc(-c3ccccc3)cc2)NC(=O)[C@@H](Cc2cccs2)NC1=O` [Compound 375] (Ac-D[d2Thi][Bip][dF][Phe(4-NH2)]-OH; lactam 1-5), greater than 100 µM. The same measure, in the same setting: for `O=C1CCC(=O)N[C@H](Cc2ccccc2)C(=O)N[C@@H](Cc2ccc(Br)cc2)C(=O)N[C@H](Cc2ccco2)C(=O)N[C@@H](C(=O)O)Cc2ccc(cc2)N1` [Compound 153] ([dF][Phe(4-Br)][dAla(2-furyl)][dPhe(4-NH2)]-OH; linker N-4 via Suc) the value was greater than 100 µM. On to `O=C(O)[C@H](Cc1cccnc1)NC(=O)[C@@H]1Cc2ccc(cc2)NC(=O)[C@H](O)[C@@H](O)C(=O)N[C@H](Cc2cccs2)C(=O)N[C@@H](Cc2ccc(-c3ccccc3)cc2)C(=O)N[C@H](CCc2ccccc2)C(=O)N1` [Compound 405], for which the IC50 was greater than 100 µM. Same read-out and setting: for `O=C(O)CCNC(=O)[C@@H]1Cc2ccc(cc2)OCC(=O)N[C@@H](Cc2ccncc2)C(=O)N[C@H](Cc2ccc(-c3ccccc3)cc2)C(=O)N[C@@H](CCc2ccccc2)C(=O)N1` [Compound 559] the value was less than 10 µM; for `CC(=O)O[C@H]1C(=O)Nc2ccc(cc2)C[C@H](C(=O)O)NC(=O)[C@@H](Cc2ccccc2)NC(=O)[C@H](Cc2ccc(-c3ccccc3)cc2)NC(=O)[C@@H](Cc2ccccc2)NC(=O)[C@@H]1OC(C)=O` [Compound 222] ([dF][Bip][dF][dPhe(4-NH2)]-OH; linker N-4 via Tartaroyl(2R,3R-(OAc)2)), greater than 100 µM. On the same count and under the same terms, to `COc1cccc(C[C@@H]2NC(=O)[C@@H](Cc3cccs3)NC(=O)CCC(=O)Nc3ccc(cc3)C[C@@H](C(=O)O)NC(=O)[C@@H](Cc3ccccc3)NC2=O)c1` [Compound 88] ([d2Thi][Phe(3-OMe)][dF][Phe(4-NH2)]-OH; linker N-4 via Suc) belongs greater than 100 µM; to `O=C1N[C@H](CCc2ccccc2)C(=O)N[C@@H](Cc2ccc(-c3ccccc3)cc2)C(=O)N[C@H](Cc2ccccc2)C(=O)N[C@H](C(=O)O)Cc2ccc1cc2` [Compound 337] ([d(hPhe)][Bip][dF][Phe(4-COOH)]-OH; lactam N-4), greater than 100 µM. Still for that read-out and setting: for `COc1cccc(-c2ccc(C[C@@H]3NC(=O)[C@@H](CCc4ccccc4)NC(=O)CCC(=O)Nc4ccc(cc4)C[C@@H](C(=O)O)NC(=O)[C@@H](Cc4ccccc4)NC3=O)cc2)c1` [Compound 110] the value was 10 to 30 µM; for `CC(=O)O[C@H]1C(=O)Nc2ccc(cc2)C[C@@H](C(=O)O)NC(=O)[C@@H](CCc2ccccc2)NC(=O)[C@H](Cc2ccc(-c3ccccc3)cc2)NC(=O)[C@@H](Cc2ccccc2)NC(=O)[C@@H]1OC(C)=O` [Compound 235] ([dF][Bip][d(hPhe)][Phe(4-NH2)]-OH; linker N-4 via Tartaroyl(2R,3R-(OAc)2)), 10 to 30 µM; for `O=C1CCC(=O)N[C@H](Cc2cccs2)C(=O)N[C@@H](Cc2ccc(Cl)cc2)C(=O)N[C@H](Cc2ccccc2)C(=O)N[C@H](C(=O)O)Cc2ccc(cc2)N1` [Compound 105] ([d2Thi][Phe(4-Cl)][dF][Phe(4-NH2)]-OH; linker N-4 via Suc), 30 to 100 µM. Turning to `O=C1CCC(=O)N[C@H](CCc2ccccc2)C(=O)N[C@@H](Cc2ccc(-c3cccc(O)c3)cc2)C(=O)N[C@H](Cc2ccccc2)C(=O)N[C@H](C(=O)O)Cc2ccc(cc2)N1` [Compound 169], the IC50 is greater than 100 µM. The same measure, in the same setting: to `O=C1N[C@@H](C(=O)O)Cc2ccc(cc2)NC(=O)[C@H](O)[C@@H](O)C(=O)N[C@H](Cc2cccs2)C(=O)N[C@@H](Cc2ccc(-c3ccccc3)cc2)C(=O)N[C@H]1Cc1ccccc1` [Compound 275] belongs greater than 100 µM.

For `O=C1CCCc2cn(nn2)C[C@@H](C(=O)O)NC(=O)[C@@H](Cc2ccccc2)NC(=O)[C@H](Cc2ccc(C(F)(F)F)cc2)NC(=O)[C@@H](CCc2ccccc2)N1` [Compound 543], the IC50 was greater than 100 µM. On the same count and under the same terms, for `O=C1COc2ccc(cc2)C[C@@H](C(=O)O)NC(=O)[C@@H](CCc2ccccc2)NC(=O)[C@H](Cc2ccc(Br)cc2)NC(=O)[C@@H](Cc2cccs2)N1` [Compound 539] the value was greater than 100 µM; for `O=C(O)CNC(=O)CNC(=O)[C@@H]1Cc2ccc(cc2)OCC(=O)N[C@@H](Cc2cccs2)C(=O)N[C@H](Cc2ccc(-c3ccccc3)cc2)C(=O)N[C@@H](CCc2ccccc2)C(=O)N1` [Compound 479], less than 10 µM; for `O=C(O)[C@H](Cc1ccccc1)NC(=O)[C@H]1Cc2ccc(cc2)NC(=O)[C@H](O)[C@@H](O)C(=O)N[C@H](Cc2cccs2)C(=O)N[C@@H](Cc2ccc(Br)cc2)C(=O)N[C@H](Cc2ccccc2)C(=O)N1` [Compound 431], greater than 100 µM. Still for that read-out and setting: for `COc1cccc(C[C@@H]2NC(=O)[C@@H](Cc3ccc(-c4ccccc4)cc3)NC(=O)[C@H](Cc3ccncc3)NC(=O)COc3ccc(cc3)C[C@@H](C(=O)O)NC2=O)c1` [Compound 638] the value was less than 10 µM; for `O=C(O)CCCNC(=O)[C@@H]1Cc2ccc(cc2)NC(=O)[C@H](O)[C@@H](O)C(=O)N[C@H](Cc2cccs2)C(=O)N[C@@H](Cc2ccc(-c3ccccc3)cc2)C(=O)N[C@H](CCc2ccccc2)C(=O)N1` [Compound 402], 10 to 30 µM.

In the case of `CC(=O)O[C@H]1C(=O)Nc2ccc(cc2)C[C@@H](C(=O)O)NC(=O)[C@@H](Cc2ccccc2)NC(=O)[C@H](Cc2ccc(-c3ccccc3)cc2)NC(=O)[C@@H](Cc2cccs2)NC(=O)[C@@H]1OC(C)=O` [Compound 223] ([d2Thi][Bip][dF][Phe(4-NH2)]-OH; linker N-4 via Tartaroyl(2R,3R-(OAc)2)), the IC50 lay within 30 to 100 µM. Still for that read-out and setting: to `O=C1COc2ccc(cc2)C[C@@H](C(=O)O)NC(=O)[C@H](Cc2ccc(Cl)cc2Cl)NC(=O)[C@@H](Cc2ccc(-c3ccccc3)cc2)NC(=O)[C@H](Cc2ccncc2)N1` [Compound 650] belongs less than 10 µM.

In the case of `O=C(O)CCCNC(=O)[C@@H]1Cc2ccc(cc2)C(=O)NCCC(=O)N[C@H](CCc2ccccc2)C(=O)N[C@@H](Cc2ccc(-c3ccccc3)cc2)C(=O)N[C@H](Cc2ccccc2)C(=O)N1` [Compound 421] ([βAla][d(hPhe)][Bip][dF][Phe(4-COOH)][GABA]-OH; lactam N-5), the IC50 was less than 10 µM. For the compound `O=C(O)[C@@H]1Cc2ccc(cc2)NC(=O)[C@H](O)[C@@H](O)C(=O)N[C@H](c2ccccc2)C(=O)N[C@@H](Cc2ccc(-c3ccccc3)cc2)C(=O)N[C@H](Cc2ccccc2)C(=O)N1` [Compound 312], the IC50 was greater than 100 µM.

Take `O=C1CCC(=O)N[C@H](Cc2cccs2)C(=O)N[C@@H](Cc2ccc(-c3ccccc3)cc2)C(=O)N[C@H](CCc2ccccc2)C(=O)Nc2ccc(cc2)C[C@@H](C(=O)O)N1` [Compound 551]: the IC50 was 30 to 100 µM. Turning to `O=C(O)[C@H](Cc1ccccc1)NC(=O)[C@H]1Cc2ccc(cc2)NC(=O)[C@H](O)[C@@H](O)C(=O)N[C@@H](Cc2cccs2)C(=O)N[C@H](Cc2ccc(-c3ccccc3)cc2)C(=O)N[C@@H](Cc2ccccc2)C(=O)N1` [Compound 434], the IC50 was less than 10 µM. Same read-out and setting: for `O=C1CCC(=O)N[C@H](Cc2ccccc2)C(=O)N[C@@H](Cc2ccc(-c3ccccc3)cc2)C(=O)N[C@H](CCc2ccccc2)C(=O)N[C@H](C(=O)O)Cc2ccc(cc2)N1` [Compound 454] ([dF][Bip][d(hPhe)][Phe(4-NH2)]-OH; linker N-4 via Suc) the value was 10 to 30 µM.

For `O=C1CCC(=O)N[C@H](Cc2cccs2)C(=O)N[C@@H](Cc2ccc(-c3ccccc3)cc2)C(=O)N[C@H](Cc2ccccc2)C(=O)N[C@H](C(=O)N2CCC(C(=O)O)CC2)Cc2ccc(cc2)N1` [Compound 23] ([d2Thi][Bip][dF][Phe(4-NH2)][Inp]-OH; linker N-4 via Suc), the IC50 is greater than 100 µM.

In the case of `CC(C)(NC(=O)[C@@H]1Cc2ccc(cc2)OCC(=O)N[C@@H](Cc2cccs2)C(=O)N[C@H](Cc2ccc(-c3ccccc3)cc2)C(=O)N[C@@H](CCc2ccccc2)C(=O)N1)C(=O)O` [Compound 477], the IC50 was less than 10 µM. As for `O=C(O)[C@@H]1Cc2ccc(cc2)NC(=O)[C@H](O)[C@@H](O)C(=O)N[C@H](Cc2ccc(C(F)(F)F)cc2)C(=O)N[C@@H](Cc2ccc(-c3ccccc3)cc2)C(=O)N[C@H](Cc2ccccc2)C(=O)N1` [Compound 263], the IC50 was greater than 100 µM.
